Data published in patent publication US4244869A, “Benzodiazepine derivatives and process of making them” (Kali-Chemie A.G., priority 1972, dated 1981).

Legend:
mice [1] = experiment: Prolongation of hexobarbital induced sleep (C.N.S. quieting properties); assay type: in vivo; details: for Quotient 1: ED50 elongation of hexobarbital induced sleep / ED50 isolation aggressiveness; for ED50: Mus musculus, po, 0.5 h, p.o., 30 min before hexobarbital 64 mg/kg i.v., prolongation by a factor of 4 in half of the mice
Procedure: (5) C.N.S. quieting properties
(Prolongation of hexobarbital induced sleep)
The test substance was applied to the mice per os. The animals after 30 minutes received additionally an intravenous injection of 64 mg/kg of hexobarbital. […] The duration of this lateral position was then compared with the control group which had been treated only with hexobarbital.
As ED50 that dose was defined at which with one-half of the animals a prolongation of the lateral position occurred by a factor of 4 as against the control group (G. M. Everett, Nature 177, 1238 [1956]).

mice [2] = experiment: Test de la traction (musculotropic properties); assay type: in vivo; details: for Quotient 2: ED50 test de la traction / ED50 isolation aggressiveness; for ED50: Mus musculus, po, 2 h, p.o., after 120 minutes, mice
Procedure: (4) Musculotropic properties
This test is called the "test de la traction". In this test the compounds were administered to the mice per os. After 120 minutes the mice were suspended with their front paws from a thin horizontally extending wire. […] These tests have the purpose to check the effects on the muscle tone by the compounds.
The ED50 values was effected via EDV by a probit analysis.

mice [3] = experiment: Maximum electroshock (anticonvulsive); assay type: in vivo; details: Mus musculus, po, 1 h, orally, 60 min before electroshock
Procedure: (§1) (2) Anti-convulsive properties
The test substances were applied orally to the animals. Sixty minutes after application electrodes were fastened to the ears of the mice and an electric shock was effected. The dose was then determined at which in half of the animals tonic contractions in the rear extremities were prevented. The computation of the ED50 was again effected by means of the above-noted probit analysis (modified according to J. Swinyard, J. Pharmacol. exptl. Therap.-106, 93 [1952]).
(§2) The results obtained by these tests show the anticonvulsive activity of the test substances. According to the medical literature this is an important criteria for the appraising of the clinical effectiveness of tranquilizers.

mice [4] = experiment: Isolation aggressiveness (anxiety relieving and anti-aggressive activity); assay type: in vivo; details: Mus musculus, po, 0.5 h; orally, after 30 minutes, isolated mice
Procedure: (3) Anxiety relieving and anti-aggressive activity. Inhibition of the aggressiveness of a mouse caused by isolation.
Before the test the mice were kept for four weeks in strict isolation in single cages. After that time the mice which had been kept in isolation spontaneously attacked other mice which were introduced then and which had not been isolated. The test substances were administered to the isolated mice orally.
The results shown in these tests permit useful conclusions regarding the anxiety, stress and tension-relieving properties of the compound.

mice [5] = experiment: Pentetrazol induced convulsions (anticonvulsive); assay type: in vivo; details: Mus musculus, po, 1 h, p.o., 60 min before pentetrazol 100 mg/kg s.c., read-out: Pentetrazol spasm ED50
Procedure: as §1
(a) Pentetrazol induced convulsions
The compounds were tested after per oral administration to groups of six mice each. Sixty minutes after application of the test compounds pentetrazol was injected subcutaneously at a dosage of 100 mg/kg. The appearance of clonic and tonic convulsions was checked through a total observation time of 45 minutes. The protective effects of the compounds against convulsions were determined in control tests with comparison compounds. The effective dose ED50 was computed from the probit logarithmic dosage curves (modified according to J. E. Blum et al. Arzneimittel-Forsch. 23, 377 [1973]).
as §2

[6] = Acute seven-day toxicity (LD50), single oral application; parameters: species or system mice (white NMRI); details: mouse, in vivo, p.o., mice
Procedure: The acute seven-day toxicity is determined by a single application per os and intraperitoneally to white fasting NMRI mice. The computation of the LD50 values was effected via EDV by a probit analysis (Cavalli-Sforza, publisher Gustav Fischer, 1964, Grundbegriffe der Biometrie).

COCC1CN=C(c2ccccc2F)c2cc(Br)ccc2N1C (stereo not drawn) [Compound 3, 7-bromo-1-methyl-2-methoxymethyl-5-(2'-fluorophenyl)-1H-2,3-dihydro-1,4-benzodiazepin]
Quotient 1 (mice [1]): 0.9
ED50 (mice [1]): 10.6 mg/kg
Quotient 2 (mice [2]): 5.4
ED50 (mice [2]): 58.3 mg/kg
ED50 (mice [3]): 5 mg/kg
ED50 (mice [4]): 10.7 mg/kg
ED50 (mice [5]): 0.5 mg/kg
LD50 at 168 h [6]: 1580 mg/kg

CCOCC1CN=C(c2ccccc2Cl)c2cc(Br)ccc2N1C (stereo not drawn) [Compound 2, 7-bromo-1-methyl-2-ethoxymethyl-5-(2'-chlorophenyl)-1H-2,3-dihydro-1,4-benzodiazepin]
Quotient 1 (mice [1]): 10.2
ED50 (mice [1]): 41.9 mg/kg
Quotient 2 (mice [2]): 8.5
ED50 (mice [2]): 34.9 mg/kg
ED50 (mice [3]): 24.5 mg/kg
ED50 (mice [4]): 4.1 mg/kg
ED50 (mice [5]): 2.2 mg/kg
LD50 at 168 h [6]: > 1470 mg/kg

COCC1CN=C(c2ccccc2Cl)c2cc(Br)ccc2N1C (stereo not drawn) [Compound 1, 7-bromo-1-methyl-2-methoxymethyl-5-(2'-chlorophenyl)-1H-2,3-dihydro-1,4-benzodiazepin]
Quotient 1 (mice [1]): 4.9
ED50 (mice [1]): 15.2 mg/kg
Quotient 2 (mice [2]): 28.1
ED50 (mice [2]): 87 mg/kg
ED50 (mice [3]): 3 mg/kg
ED50 (mice [4]): 3.1 mg/kg
ED50 (mice [5]): 0.9 mg/kg
LD50 at 168 h [6]: 1580 mg/kg

CN1C(=O)CN=C(c2ccccc2)c2cc(Cl)ccc21 [Standard II, 7-chloro-1-methyl-5-phenyl-1,3-dihydro-2H-1,4-benzodiazepin-2-one, reference compound]
Quotient 1 (mice [1]): 0.42
ED50 (mice [1]): 1.5 mg/kg
Quotient 2 (mice [2]): 1.2
ED50 (mice [2]): 4.2 mg/kg
ED50 (mice [3]): 9 mg/kg
ED50 (mice [4]): 3.6 mg/kg
ED50 (mice [5]): 0.5 mg/kg

COCC1CN=C(c2ccccc2Cl)c2cc(Cl)ccc2N1C (stereo not drawn) [Standard I, 7-chloro-1-methyl-2-methoxymethyl-5-(2'-chlorophenyl)-1H-2,3-dihydro-1,4-benzodiazepin, reference compound]
Quotient 1 (mice [1]): 0.17
ED50 (mice [1]): 11.7 mg/kg
Quotient 2 (mice [2]): 2.4
ED50 (mice [2]): 163 mg/kg
ED50 (mice [3]): 26 mg/kg
ED50 (mice [4]): 68 mg/kg
ED50 (mice [5]): 2 mg/kg
LD50 at 168 h [6]: 1780 mg/kg
